In article PMC5974751, “NKp44-Derived Peptide Binds Proliferating Cell Nuclear Antigen and Mediates Tumor Cell Death” (Frontiers in Immunology, 2018):
Peptide text beside a SMILES is read from it.

Key:
[1] = system: 4T1 breast cancer tumor in BALB/C mice; test: In vivo 4T1 tumor growth; parameters: species or system mouse; details: for tumor growth suppression vs vehicle, significance on days 19 and 23 / tumor growth suppression vs vehicle, significance on day 28: R11-NLS-pep8 5 mg/kg IV, 5-FU 30 mg/kg; for tumor growth suppression vs vehicle, significance on days 19 and 23: every 2 days, treatment stopped day 22, unpaired t-test, one-tail; for tumor growth suppression vs vehicle, significance on day 28: treatment stopped day 22
Description: Seven-week-old female BALB/C mice with an average body weight of 20 g were used in this experiment. 4T1 cells suspended at a density of 2 × 10^5 cells/50 μl, in serum-free DMEM containing 40% Geltrex, were injected into the left mammary fat pad, and allowed to develop tumors. After 5 days, mice were randomly divided into three groups, one group was treated with R11-NLS-pep8, at a dose of 5 mg/kg, intravenously (IV), other group with 5-FU, at a dose of 30 mg/kg, (IV) and mice treated with a 1.44% DMSO/150 mM NaCl solution, (IV) served as the vehicle control. Treatment was continued following every 2 days at least for 4 weeks. Each week, tumor size was evaluated by measuring their length (L) and width (W), using a Caliper device and tumor volume (V) was calculated according to the equation: V = LW^2/2. After 4 weeks of treatment, mice were euthanized, and tumors volume and weight were measured.
Figure 5 Effect of R11-NLS-pep8 on 4T1 and B16 in vivo tumor models. (A) 4T1 cells or (C) B16 cells were injected into the nipple pad or flank of young BALB/C females or C57BL/6 males, respectively (day 0). At day 5, mice were divided to subgroups according to mice weight. Treatment was started at day 5 (4T1) or day 6 (B16) and end at day 22. Treatment was administrated every 2 days three times per week; 5-FU was administered intraperitoneally (IP) while R11-NLS-pep8 was administrated intravenously (4T1) or IP (B16). Tumor volume (mm^3) was measured at days as indicated on graphs mean tumor volume (mm^3), (B) 4T1 and (D) B16 were normalized to vehicle/day to show the effect of treatment on tumor volume per day. Statistical analysis was performed on original tumor volume data. Unpaired t-test; one-tail, *p < 0.05.

[2] = system: B16 melanoma tumor in C57BL/6 mice; test: In vivo B16 tumor growth; parameters: species or system mouse; details: R11-NLS-pep8 5 mg/kg IP, 5-FU 30 mg/kg IP, treatment stopped day 22
Description: Seven-week-old male C57BL/6 mice with an average body weight of 23 g were used in the other experiment. B16 cells suspended at a density of 0.5 × 10^6 cells/100 μl, in serum-free DMEM containing 40% Geltrex, were injected subcutaneously in the left dorsal flank, and allowed to develop tumors. After 6 days, mice were randomly divided into three groups, one group was treated with R11-NLS-pep8, at a dose of 5 mg/kg, intraperitoneally (IP), other group with 5-FU, at a dose of 30 mg/kg, (IP) and mice treated with a 1.44% DMSO/150 mM NaCl solution, (IP) served as the vehicle control. Treatment was done three times a week at least for 4 weeks. Each week, tumors size was evaluated by measuring their length (L) and width (W), using a Caliper device and tumor volume (V) was calculated according to the equation: V = LW^2/2. After 3 weeks of treatment, mice were euthanized, and tumors volume and weight were measured.
Figure 5 Effect of R11-NLS-pep8 on 4T1 and B16 in vivo tumor models. (A) 4T1 cells or (C) B16 cells were injected into the nipple pad or flank of young BALB/C females or C57BL/6 males, respectively (day 0). At day 5, mice were divided to subgroups according to mice weight. […] Tumor volume (mm^3) was measured at days as indicated on graphs mean tumor volume (mm^3), (B) 4T1 and (D) B16 were normalized to vehicle/day to show the effect of treatment on tumor volume per day. […]

B16 melanoma cells = test: PrestoBlue cell viability, B16; assay type: cell-based, murine; details: 24 h, sigmoidal dose–response
Description: (§1) Target cells (2.5 × 10^4 cells/well of a 48-well plate, Corning) were seeded and incubated in 37°C, 5% CO2 for 24 h in 0.5 ml of fresh complete DMEM (10% FBS) culture medium. According to molecular weight peptides were diluted from 8 to 2 µM with 5% FBS containing DMEM culture medium just before the incubation with the target cells. Medium was removed from each well, and 250 µl of diluted peptides was added and incubated for another 24 h at 37°C, 5% CO2. PrestoBlue (A13261, Invitrogen™) solution was prepared by diluting the dye 10-fold with complete DMEM. Medium was discarded from each well, and 250 µl of PrestoBlue solution was added to each well, shake gently and incubated at 37°C for another 1 h. Emission at 560 nm was measured in Premium Quad4 Monochromators plate reader (Tecan). Normalization was done relative to the appropriate control (DMEM or DMSO) to calculate the percentage of viable cells in each group. Selenite (25 µM) was used as a positive control ([52], [53]).

[3] = system: PANC-1 pancreas ductal adenocarcinoma cells; test: PrestoBlue cell viability, PANC-1; assay type: cell-based, human; details: PANC-1, PrestoBlue, 24 h; sigmoidal dose–response
Description: as §1

[4] = system: HepG2 hepatocellular carcinoma cells; test: PrestoBlue cell viability, HepG2; assay type: cell-based, human; details: 24 h, sigmoidal dose–response
Description: as §1

[5] = system: MDA-MB-231 breast adenocarcinoma cells; test: PrestoBlue cell viability, MDA-MB-231; assay type: cell-based, human; details: MDA-MB-231, PrestoBlue, 24 h; sigmoidal dose–response
Description: as §1

B16 cells = test: Flow cytometry based cell death assay (PI), B16; parameters: species or system murine; details: 0–8 µM, 24 h
Description: (§2) Peptides were diluted before the incubation with the target cells with free DMEM culture medium to 0–16 µM according to peptide molecular weight. For adding the peptides, 0.5 ml was removed from each well, and 0.5 ml of diluted peptides was added to a final volume of 1 ml, 5% FCS, duplicates. Peptides were incubated with target cells for 24 h, and then the medium was collected, adherent cells were removed with trypsin–EDTA (0.5 ml, 3 min, BI: 03-052-1B), 1 ml of complete medium was added to each well, and the medium was collected (final volume 2.5 ml, on ice). For the cell death assay, samples were then centrifuged (1,300 rpm, 4°C, 5 min), the medium was removed, fresh 1 ml 10% FCS was added, and then 1 µl of 1 mg/ml PI was added to each sample and incubated (15 min, on ice) with the target cells. Before analyzing the samples, samples were centrifuged (1,300 rpm, 4°C, 5 min), the medium was removed, and fresh 0.2 ml FCAS buffer (PBS 1×, 20% FCS, 0.5% NaN3) was added. Samples were then read and analyzed using BD FACSCanto™ II and FlowJo®. APIM peptide and camptothecin (CPT) were used as positive controls ([38], [54]–[56]). Specific cell death was calculated as following: Y = 100*((sample cell death − basal cell death)/(100 − basal cell death)). Basal cell death = % of PI positive cells following incubation in complete culture media.

4T1 cells = test: Flow cytometry based cell death assay (PI), 4T1; parameters: species or system murine; details: 4T1, PI flow cytometry, 0–8 µM, 24 h
Description: as §2

MDA-MB-231 cells = test: Flow cytometry based cell death assay (PI), MDA-MB-231; parameters: species or system human; details: MDA-MB-231, PI flow cytometry, 0–8 µM, 24 h
Description: as §2

[6] = system: pep8–PCNA interaction (recombinant PCNA); test: ELISA-based inhibition of biotin-pep8 binding to PCNA; parameters: species or system human; details: inhibitor 25 µg/ml 1 h, then biotin-pep8 5 µg/ml 1 h, room temperature, O.D. 650 nm
Description: To determine the ability of APIM-based peptide to suppress NKp44-pep8 interaction with PCNA, ELISA plates were coated with recombinant PCNA followed by PBS–skim milk added as described earlier. Plates were then incubated with 25 µg/ml of R11-NLS-pep8 (positive control), R11-NLS-pep8short (negative control), and APIM for 1 h at room temperature followed by addition of biotin-pep8 (5 µg/ml) without washing for 1 h at room temperature. Biotin-pep8 binding to PCNA was detected using streptavidin conjugated HRP (1 h at 1:500 dilution 100 μl/well). Following washing, TMB (100 μl/well DAKO, S1599) was added. O.D. was read at 650 nm (Thermo Electron Corporation Multiskan Spectrum).

[7] = Initial toxicity studies in mice; assay type: in vivo, mouse; details: 5 mg/kg every 2 days for 3 weeks; data not shown
Description: Initial toxicity studies have been performed with the 5 mg/kg dose injected into mice every 2 days for 3 weeks, and analysis of mouse weight and well-being was meticulously observed during this time. Also, livers, spleens, and lungs were harvested and weight.

| inhibition of pep8 binding to PCNA [6] | SMILES | tumor growth suppression vs vehicle, significance on days 19 and 23 [1] | tumor growth suppression vs vehicle, significance on day 28 [1] | tumor growth suppression, day 23 [2] | ED50, cell viability (B16 melanoma cells) | ED50, cell viability [3] | ED50, cell viability [4] | ED50, cell viability [5] | ED50, cell death (B16 cells) | ED50, cell death (4T1 cells) | ED50, cell death (MDA-MB-231 cells) | growth suppression relative to 5-FU ([1]; R11-NLS-pep8 5 mg/kg IV vs 5-FU IP 30 mg/kg) | mice weights and well-being [7] | organ weights (livers, spleens, lungs) at end of experiment [7] |
| --- | --- | --- | --- | --- | --- | --- | --- | --- | --- | --- | --- | --- | --- | --- |
| – | O=c1[nH]cc(F)c(=O)[nH]1 [5-FU, reference compound] | clear yet non-significant on days 19 and 23 | significant on day 28 | significantly suppressed B16 growth | – | – | – | – | – | – | – | – | – | – |
| 35% | CC[C@H](C)[C@H](NC(=O)[C@H](CCCNC(=N)N)NC(=O)[C@H](CCCNC(=N)N)NC(=O)[C@H](CCCNC(=N)N)NC(=O)[C@H](CCCNC(=N)N)NC(=O)[C@H](CCCNC(=N)N)NC(=O)[C@H](CCCNC(=N)N)NC(=O)[C@H](CCCNC(=N)N)NC(=O)[C@H](CCCNC(=N)N)NC(=O)[C@H](CCCNC(=N)N)NC(=O)[C@H](CCCNC(=N)N)NC(=O)[C@H](CCCNC(=N)N)NC(C)=O)C(=O)N[C@@H](CCCCN)C(=O)N[C@@H](CCCCN)C(=O)N[C@@H](CCCCN)C(=O)N[C@@H](CCCNC(=N)N)C(=O)N[C@@H](CCCCN)C(=O)N[C@@H](Cc1c[nH]c2ccccc12)C(=O)N[C@@H](CCC(=O)O)C(=O)N[C@@H](C)C(=O)N[C@@H](CO)C(=O)N[C@@H](C)C(=O)N[C@@H](CC(C)C)C(=O)N[C@H](C(=O)N[C@@H](CS)C(=O)N[C@H](C(=O)N[C@@H](CCCNC(=N)N)C(=O)N[C@@H](CC(C)C)C(=O)N[C@H](C(=O)N[C@H](C(=O)N[C@@H](CO)C(=O)N[C@@H](CO)C(=O)N[C@@H](CCCCN)C(=O)N1CCC[C@H]1C(=O)N[C@@H](CCCNC(=N)N)C(=O)N[C@H](C(=O)N[C@H](C(=O)N[C@H](C)C(=O)O)C(C)C)[C@@H](C)O)[C@@H](C)O)C(C)C)[C@@H](C)CC)C(C)C [R11-NLS-pep8] (HELM PEPTIDE1{[ac].R.R.R.R.R.R.R.R.R.R.R.I.K.K.K.R.K.W.E.A.S.A.L.V.C.I.R.L.V.T.S.S.K.P.R.T.V.[dA]}$$$$V2.0; C-terminus assumed) | statistically significant on days 19 and 23 | statistically non-significant difference | significantly suppressed B16 growth | 7.1 µM | 7.8 µM | 5.9 µM | 5.6 µM | 3.94 µM | 3.78 µM | 4.07 µM | comparable to the effect of 5-FU | No significant changes were observed | No significant changes were observed |
